{"source": "ChEMBL document CHEMBL6182888", "about": "“Design, synthesis, and biological activity study of 6,7-dimethoxy-1,2,3,4-tetrahydroisoquinoline derivatives against multidrug resistance in Eca109/VCR cells” (Eur J Med Chem, 2025)", "key": {"Eca-109/VCR [1]": {"tested_on": "Eca-109/VCR", "assay": "Induction of apoptosis in human Eca-109/VCR cells assessed as late apoptotic cells at 2.5 uM incubated for 60 hrs by Annexin V-FITC/PI staining based flow cytometric analysis (reference value: 0.70%)", "assay_type": "functional"}, "[2]": {"assay": "Reversal fold, ratio of lapatinib IC50 to lapatinib IC50 in presence of test compound for reversal of drug resistance in human Eca-109/VCR cells at 5 uM incubated for 48 hrs by CCK-8 assay", "assay_type": "functional"}, "Eca-109/VCR [3]": {"tested_on": "Eca-109/VCR", "assay": "Reversal of multi-drug resistance in human Eca-109/VCR cells assessed as decrease in cloning formation at 0.5 to 2 uM incubated for 8 days in presence of vincristine by crystal violet staining based analysis", "assay_type": "functional, cell-based", "conditions": "dose 0.5-2 µM, time 8.0 day"}, "[4]": {"assay": "Reversal fold, ratio of colchicine IC50 to colchicine IC50 in presence of test compound for reversal of drug resistance in human Eca-109/VCR cells at 5 uM incubated for 48 hrs by CCK-8 assay", "assay_type": "functional"}, "[5]": {"assay": "Reversal fold, ratio of doxorubicin IC50 to doxorubicin IC50 in presence of test compound for reversal of drug resistance in human Eca-109/VCR cells at 5 uM incubated for 48 hrs by CCK-8 assay", "assay_type": "functional"}, "Eca-109/VCR [6]": {"tested_on": "Eca-109/VCR", "assay": "Induction of apoptosis in human Eca-109/VCR cells assessed as necrotic cells at 2.5 uM incubated for 60 hrs in presence of vincristine by Annexin V-FITC/PI staining based flow cytometric analysis (reference value: 0.10%)", "assay_type": "functional"}, "Eca-109/VCR [7]": {"tested_on": "Eca-109/VCR", "assay": "Induction of apoptosis in human Eca-109/VCR cells assessed as viable cells at 5 uM incubated for 60 hrs by Annexin V-FITC/PI staining based flow cytometric analysis (reference value: 97.4%)", "assay_type": "functional", "conditions": "read-out: Activity"}, "Eca-109/VCR [8]": {"tested_on": "Eca-109/VCR", "assay": "Reversal of multi-drug resistance in human Eca-109/VCR cells assessed as decrease in cloning formation incubated for 8 days in presence of vincristine by crystal violet staining based analysis", "assay_type": "functional, cell-based", "conditions": "dose 0.5-2 µM, time 8.0 day"}, "Eca-109/VCR [9]": {"tested_on": "Eca-109/VCR", "assay": "Induction of apoptosis in human Eca-109/VCR cells assessed as late apoptotic cells at 2.5 uM incubated for 60 hrs in presence of vincristine by Annexin V-FITC/PI staining based flow cytometric analysis (reference value: 0.56%)", "assay_type": "functional"}, "Eca-109/VCR [10]": {"tested_on": "Eca-109/VCR", "assay": "Induction of apoptosis in human Eca-109/VCR cells assessed as necrotic cells at 5 uM incubated for 60 hrs in presence of vincristine by Annexin V-FITC/PI staining based flow cytometric analysis (reference value: 0.10%)", "assay_type": "functional"}, "Eca-109/VCR [11]": {"tested_on": "Eca-109/VCR", "assay": "Induction of apoptosis in human Eca-109/VCR cells assessed as viable cells at 5 uM incubated for 60 hrs in presence of vincristine by Annexin V-FITC/PI staining based flow cytometric analysis (reference value: 97.3%)", "assay_type": "functional", "conditions": "read-out: Activity"}, "[12]": {"assay": "Reversal fold, ratio of mitoxantrone IC50 to mitoxantrone IC50 in presence of test compound for reversal of drug resistance in human Eca-109/VCR cells at 5 uM incubated for 48 hrs by CCK-8 assay", "assay_type": "functional"}, "Eca-109/VCR [13]": {"tested_on": "Eca-109/VCR", "assay": "Induction of apoptosis in human Eca-109/VCR cells assessed as viable cells at 2.5 uM incubated for 60 hrs by Annexin V-FITC/PI staining based flow cytometric analysis (reference value: 97.4%)", "assay_type": "functional", "conditions": "read-out: Activity"}, "[14]": {"assay": "Apparent clearance in male Sprague-Dawley rat at 10 mg/kg, po measured after 24 hrs by UPLC-MS/MS analysis", "assay_type": "ADME, organism-based", "conditions": "in vivo, read-out: CL(app) (converted)"}, "Eca-109/VCR [15]": {"tested_on": "Eca-109/VCR", "assay": "Induction of apoptosis in human Eca-109/VCR cells assessed as necrotic cells at 2.5 uM incubated for 60 hrs by Annexin V-FITC/PI staining based flow cytometric analysis (reference value: 0.22%)", "assay_type": "functional"}, "[16]": {"assay": "Reversal fold, ratio of docetaxel IC50 to docetaxel IC50 in presence of test compound for reversal of drug resistance in human Eca-109/VCR cells at 5 uM incubated for 48 hrs by CCK-8 assay", "assay_type": "functional"}, "Eca-109/VCR [17]": {"tested_on": "Eca-109/VCR", "assay": "Induction of apoptosis in human Eca-109/VCR cells assessed as early apoptotic cells at 5 uM incubated for 60 hrs by Annexin V-FITC/PI staining based flow cytometric analysis (reference value: 1.66%)", "assay_type": "functional"}, "Eca-109/VCR [18]": {"tested_on": "Eca-109/VCR", "assay": "Cytotoxicity against human Eca-109/VCR cells assessed as reduction in cell viability at 5.0 uM incubated for 48 hrs by CCK-8 assay relative to control", "assay_type": "functional"}, "Eca-109/VCR [19]": {"tested_on": "Eca-109/VCR", "assay": "Induction of apoptosis in human Eca-109/VCR cells assessed as early apoptotic cells at 2.5 uM incubated for 60 hrs by Annexin V-FITC/PI staining based flow cytometric analysis (reference value: 1.66%)", "assay_type": "functional"}, "[20]": {"assay": "Reversal fold, ratio of vincristine IC50 to vincristine IC50 in presence of test compound for reversal of drug resistance in human Eca-109/VCR cells at 5 uM incubated for 48 hrs by CCK-8 assay", "assay_type": "functional"}, "Eca-109/VCR [21]": {"tested_on": "Eca-109/VCR", "assay": "Induction of apoptosis in human Eca-109/VCR cells assessed as late apoptotic cells at 5 uM incubated for 60 hrs in presence of vincristine by Annexin V-FITC/PI staining based flow cytometric analysis (reference value: 0.56%)", "assay_type": "functional"}, "Eca-109/VCR [22]": {"tested_on": "Eca-109/VCR", "assay": "Induction of apoptosis in human Eca-109/VCR cells assessed as viable cells at 2.5 uM incubated for 60 hrs in presence of vincristine by Annexin V-FITC/PI staining based flow cytometric analysis (reference value: 97.3%)", "assay_type": "functional", "conditions": "read-out: Activity"}, "Eca-109/VCR [23]": {"tested_on": "Eca-109/VCR", "assay": "Effect on p-gp expression in human Eca-109/VCR cells at 5 to 10 uM incubated for 24 hrs by Western blotting analysis", "assay_type": "functional, cell-based", "conditions": "dose 5-10 µM"}, "Eca-109/VCR [24]": {"tested_on": "Eca-109/VCR", "assay": "Reversal of multi-drug resistance in human Eca-109/VCR cells assessed as decrease in cloning formation at 0.5 to 2 uM incubated for 8 days by crystal violet staining based analysis", "assay_type": "functional, cell-based", "conditions": "dose 0.5-2 µM, time 8.0 day"}, "Eca-109/VCR [25]": {"tested_on": "Eca-109/VCR", "assay": "Induction of apoptosis in human Eca-109/VCR cells assessed as late apoptotic cells at 5 uM incubated for 60 hrs by Annexin V-FITC/PI staining based flow cytometric analysis (reference value: 0.70%)", "assay_type": "functional"}, "Eca-109/VCR [26]": {"tested_on": "Eca-109/VCR", "assay": "Cytotoxicity against human Eca-109/VCR cells assessed as reduction in cell viability incubated for 48 hrs by CCK-8 assay", "assay_type": "functional, cell-based"}}, "note": "Calls of active or inactive are those of the source. No cut-off for these calls is given here."}
{"smiles": "COc1cc2c(cc1OC)C(Cc1ccc(OS(=O)(=O)c3ccccc3[N+](=O)[O-])c(OC)c1)N(C)CC2", "note": "(configuration not stated)", "values": [{"measurement": "Activity", "setting": "Eca-109/VCR [1]", "value": 0.53, "unit": "%"}, {"measurement": "Ratio IC50", "setting": "[2]", "value": 1}, {"measurement": "Activity", "setting": "Eca-109/VCR [3]", "value": "Active; Compound Showed Superior Reversal Activity Compared To Oy-101"}, {"measurement": "Ratio IC50", "setting": "[4]", "value": 98.2}, {"measurement": "Ratio IC50", "setting": "[5]", "value": 29.4}, {"measurement": "Activity", "setting": "Eca-109/VCR [6]", "value": 0.63, "unit": "%"}, {"measurement": "viability at 5 µM", "setting": "Eca-109/VCR [7]", "value": 97.1, "unit": "%"}, {"measurement": "Activity", "setting": "Eca-109/VCR [8]", "value": "Dose-dependent-effect"}, {"measurement": "Activity", "setting": "Eca-109/VCR [9]", "value": 5.47, "unit": "%"}, {"measurement": "Activity", "setting": "Eca-109/VCR [10]", "value": 0.7, "unit": "%"}, {"measurement": "viability at 5 µM", "setting": "Eca-109/VCR [11]", "value": 94.5, "unit": "%"}, {"measurement": "Ratio IC50", "setting": "[12]", "value": 10}, {"measurement": "viability at 2.5 µM", "setting": "Eca-109/VCR [13]", "value": 96.9, "unit": "%"}, {"measurement": "CL/F", "setting": "[14]", "value": 393, "unit": "L/h/kg"}, {"measurement": "Activity", "setting": "Eca-109/VCR [15]", "value": 0.29, "unit": "%"}, {"measurement": "Ratio IC50", "setting": "[16]", "value": 149.7}, {"measurement": "Activity", "setting": "Eca-109/VCR [17]", "value": 1.61, "unit": "%"}, {"measurement": "Cell viability (% of control)", "setting": "Eca-109/VCR [18]", "value": 99.1, "unit": "%"}, {"measurement": "Activity", "setting": "Eca-109/VCR [19]", "value": 2.19, "unit": "%"}, {"measurement": "Ratio IC50", "setting": "[20]", "value": 467.7}, {"measurement": "Activity", "setting": "Eca-109/VCR [21]", "value": 9.21, "unit": "%"}, {"measurement": "viability at 2.5 µM", "setting": "Eca-109/VCR [22]", "value": 75.4, "unit": "%"}, {"measurement": "Activity", "setting": "Eca-109/VCR [23]", "value": "Active"}, {"measurement": "Activity", "setting": "Eca-109/VCR [24]", "value": "inactive"}, {"measurement": "Activity", "setting": "Eca-109/VCR [25]", "value": 1, "unit": "%"}]}
{"smiles": "CC[C@]1(O)C[C@H]2CN(CCc3c([nH]c4ccccc34)[C@@](C(=O)OC)(c3cc4c(cc3OC)N(C=O)[C@H]3[C@@](O)(C(=O)OC)[C@H](OC(C)=O)[C@]5(CC)C=CCN6CC[C@]43[C@@H]65)C2)C1", "note": "[VINCRISTINE]", "values": [{"measurement": "IC50", "setting": "Eca-109/VCR [26]", "value": 4.15, "unit": "µM"}, {"measurement": "Activity", "setting": "Eca-109/VCR [24]", "value": "inactive"}]}
